Data on one compound can be found in patent US8003602B2 (priority 2006, dated 2011).

The test system of experiment [1] is methicillin resistant Staphylococcus aureus E710 (MRSA). Put plainly: Systemic infection model (septicemia). Format: in vivo, Balb/C mice. Conditions: mice infected intraperitoneally with MRSA E710, administered intravenously immediately after infection. An excerpt:
(§1) The in-vivo potency was established by protection dose (PD) determinations of the compound PM181104 for its antibiotic activity in three animal models using either male or female Balb/C mice.
(§2) The models used were the general purpose efficacy testing models and organ/tissue specific efficacy testing models. The general purpose efficacy testing models used were systemic infection model (septicemia), and localized infection model (neutropenic thigh model). The Organ/Tissue specific infection models used for efficacy testing were kidney, lung infection, and skin abscess model.
The animals were infected intraperitoneally with ˜10^8 to 10^9 cfu of an overnight grown culture of methicillin resistant Staphylococcus aureus E710 (MRSA), suspended in normal saline (0.85% sodium chloride). PM181104 solution was prepared in cremophor-ethanol formulation as described in example 14. The solution was administered intravenously at 5 mg, 2.5 mg and 1.25 mg/kg doses, immediately after infection. Each experimental group consisted of ten animals.

In experiment [2] the test system is Enterococcus faecium ATCC 47077. The experiment can be described thus: Kidney infection model. The experiment is classed as in vivo, Balb/C mice. The settings on record: 5 mg/kg intravenously at 4, 24 and 48 hours post-infection, kidneys harvested at 72 hours.
Source text: as §1, §2
0.2 ml of 2% λ Carrageenan was administered intravenously to Balb/C mice 7 days prior to infection. Overnight grown log phase culture of Enterococcus faecium ATCC 47077 adjusted to approximately 10^9 cfu/ml, was injected intravenously to the mice at a volume of 0.2 ml. PM181104 solution, prepared in cremophor-ethanol formulation as described in example 14, was administered intravenously to the mice at 4 hours, 24 hours and 48 hours post-infection. At 72 hours post infection, the animals were sacrificed and kidneys were harvested to determine the bacterial load. […] Linezolid (manufactured by Glenmark Pharma Ltd; Batch no: K2005028) at 25 mg/kg and Vancomycin hydrochloride (manufactured by HiMedia; Catalogue no: RM217-500 mg; Lot no: 06-0350) at 150 mg/kg dose.

For the compound `C=C(NC(=O)C(=C)NC(=O)C1CCCN1C(=O)c1nc(-c2ccc(-c3nc(C(=O)NC(=C)C(=O)NC(C)C(N)=O)cs3)c(-c3csc(C4Cc5nc(cs5)C(=O)NC(Cc5ccccc5)C5=NC(CS5)C(=O)NC(Cc5ccc(O)cc5)C(=O)N5CCCC5c5nc(cs5)C(=O)N4)n3)n2)oc1C)C(N)=O` (centres unmarked) [PM181104], the PD100 in experiment [1] came to 5 mg/kg. Besides, in experiment [2], the “decrease in bacterial count in kidneys” value was “approximately 1 log”.
